Legend:
[1] = test system: EMT-6 mouse mammary tumor cells; assay: In vitro phototoxicity: cell photo-inactivation, MTT cell survival assay; type: cell-based; conditions: EMT-6 cells
Method: Chremophor emulsions were prepared and cell photo inactivation was determined by J. E. van Lier and colleagues at the University of Sherbrooke, Sherbrooke, QC, Canada, in accordance with published procedures. (Alleman et al. Int. J. Cancer, 72:289-294 (1997))
Chremophor EL (CRM) was obtained from BASF (Toronto, Canada). All solvents were of analytical grade, and all other chemicals were commercially available products. Zinc octakis (perfluoroisopropyl) perfluorophthalocyanine (“ZnPcF64”, 2.5 mg) was first dissolved in methanol (2 mL). 500 μL of Chremophor and 150 μL of propane diol were added to the solution. The methanol was evaporated by rotory evaporation at room temperature. The residue was diluted with PBS to 5 mL and sterile filtered (0.2 μm). […]
After incubation, cells were rinsed twice with PBS, refed with 100 μl Waymouth 15% FBS and exposed to red light. […] The fluence rate calculated over the absorbance peaks of the dyes (660-700 nm) was 10 mW cm^−2, for a total fluence of 0.6-36 J/cm^2. […] Plates were incubated overnight at 37° C., after which the absorbance was read at 595 nm by means of a microplate reader (BioRad, Mississauga, Canada). The average absorbance of the blank wells in which cells were omitted was subtracted from the readings of the other wells. The average absorbance of the control cells, which were incubated with dye-free Waymouth 1% FBS, represents 100% cell survival. […]

EMT-6 tumor = assay: In vivo phototoxicity: photodynamic therapy in murine EMT-6 tumor model; design: species or system BALB/c mice; conditions: CRM emulsion
Method: The in vivo phototoxicity effects of ZnPcF64 on mouse tumors were determined by J. E. van Lier and colleagues at the University of Sherbrooke, Sherbrooke, QC, Canada, in accordance with published procedures. (Alleman et al. Int. J. Cancer, 72:289-294 (1997))
Experiments were performed on male BALB/c mice (16-22 g) and female Fisher CDF (F-344) rats (approx. 150 g) (Charles River, Montreal, Canada) following a protocol approved by the Canadian Council on Animal Care and an in-house ethics committee. Animals were allowed free access to water and food throughout the course of the experiments. Before tumor implantation, hair on the hind legs and back of the mice was removed by shaving and chemical depilating (Nair®, Whitehall, Mississauga, Canada). A tumor was implanted on each hind thigh by intradermal injection of 2 times 10^5 EMT-6 cells suspended in 0.05 ml Waymouth's growth medium. Biodistribution and photodynamic activity of ZnPcF64 were assayed using a murine EMT-6 tumor model (Allémann et al. Int. J. Cancer, 72:289-294 (1997)).
For PDT studies, mice were used 6-8 days after tumor inoculation (tumor size: 3-5 mm diameter, 2-3 mm thickness). At this time point, the tumor is sufficiently large to be measured, while therapeutic response can be observed without interference of spontaneous necrosis (Margaron et al. Anticancer Res. 16:613-620 (1996)). Animals were given an i.v. injection of ZnPcF64 formulated as a CRM emulsion at I or 2.5 μmol kg^−1 (0.2 ml), and one tumor was treated with red light 24-72 hr later, while the other tumor served as a control. Tumors were illuminated with an 8-mm diameter beam of 650-700 nm light ([…] for a total fluence of 100-400 J .cm^−2) generated by a 1,000 W Xenon lamp, equipped with a 10-cm circulating water filter and 2 glass filters (Corion LL650 and LS700, Holliston, Mass.). A positive tumor response (necrosis) was assigned to tumors which appeared macroscopically as flat and necrotic tissues within a few days after PDT (Allémann et al. Int. J Canc. 66:821-824 (1996)). […]

Substance: Zinc Octakis (perfluoroisopropyl) Perfluorophthalocyanine, Bis-acetone Solvate [ZnPcF64]
- phototoxic effects ([1]; CRM emulsion at 1 and 3 μM, 1 or 24 hours incubation, red light 660-700 nm, 0.6-36 J/cm^2, any conditions): No phototoxic effects
- Cell survival ([1]; highest dye concentrations and longest light exposure): 100%
- tumor response after PDT (EMT-6 tumor; 1 μmol/kg i.v., 650-700 nm light 24-72 hr later, EMT-6 tumor in mice): complete tumor necrosis
- inflammation after PDT (EMT-6 tumor; 1 μmol/kg i.v., 650-700 nm light, EMT-6 tumor in mice): some inflammation
- outcome of treated mice (lethality) (EMT-6 tumor; 2.5 μmol/kg i.v., tumor-bearing mice): died of shock
